Data on eight compounds can be found in ChEMBL document CHEMBL3400084, “Synthesis and evaluation of tetrahydroindazole derivatives as sigma-2 receptor ligands” (Bioorg Med Chem, 2015).

The target of test [1] is Sigma non-opioid intracellular receptor 1 (Cavia porcellus, UniProt Q60492). The test is described as follows: Displacement of (+)-[3H]pentazocine from sigma 1 receptor in guinea pig brain homogenate after 120 mins by beta counting. In kind it is tissue-based.
The nature of test [2]: Displacement of [3H]-di-o-tolylguanidine from sigma 2 receptor in Sprague-Dawley rat liver membranes after 120 mins by beta counting in presence of (+)-pentazocine. The format is cell membranes, Membrane.
Test [3] is described as follows: Selectivity ratio of Ki for sigma 1 receptor in guinea pig brain homogenate to Ki for sigma 2 receptor in Sprague-Dawley rat liver membranes. In kind it is cell membranes.

Each structure is given as a SMILES string.

Sequence of Sigma non-opioid intracellular receptor 1 (Q60492 whole entry): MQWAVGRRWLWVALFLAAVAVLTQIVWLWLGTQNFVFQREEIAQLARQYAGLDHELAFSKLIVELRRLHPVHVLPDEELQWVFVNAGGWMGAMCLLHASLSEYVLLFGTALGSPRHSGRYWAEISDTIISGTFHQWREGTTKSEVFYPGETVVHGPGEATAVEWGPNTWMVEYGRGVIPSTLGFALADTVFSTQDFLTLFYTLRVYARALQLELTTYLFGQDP

Regarding `COc1cc2c(cc1OC)CN(CCCCCNc1cc(-n3nc(C)c4c3CC(C)(C)CC4=O)ccc1C(N)=O)CC2`, the Ki was above 1 µM in test [1] and 0.0745 µM in test [2]. In test [3], the Ratio Ki was above 13.
For the compound `COc1cc2c(cc1OC)CN(CCCCCCNc1cc(-n3nc(C)c4c3CC(C)(C)CC4=O)ccc1C(N)=O)CC2`, the Ki in test [1] is above 1 µM; in test [2], 21.5 µM.
On to `Cc1ccccc1NC(=N)Nc1ccccc1C` [DITOLYLGUANIDINE], for which the Ki in test [2] is 0.0194 µM.
For the compound `Cc1nn(-c2ccc(C(N)=O)c(NC3CC4CCCC(C3)N4)c2)c2c1C(=O)CC(C)(C)C2` (centres undefined), the Ki was above 1 µM in test [1] and 0.0466 µM in test [2]. Also, the Ratio Ki in test [3] is above 21.
With `COc1cc2c(cc1OC)CN(c1cc(-n3nc(C)c4c3CC(C)(C)CC4=O)ccc1C(N)=O)CC2`, the Ki in test [1] was above 1 µM; in test [2] it was 18.4 µM.
On to `COc1cc2c(cc1OC)CN(CCCNc1cc(-n3nc(C)c4c3CC(C)(C)CC4=O)ccc1C(N)=O)CC2`, for which the Ki in test [1] was above 1 µM; in test [2], 0.0898 µM. Moreover, in test [3], the Ratio Ki is above 11.
As for `COc1cc2c(cc1OC)CN(CCCCNc1cc(-n3nc(C)c4c3CC(C)(C)CC4=O)ccc1C(N)=O)CC2`, the Ki is above 1 µM in test [1] and 0.142 µM in test [2]. For the same compound, the Ratio Ki in test [3] is above 7.
For the compound `COc1cc2c(cc1OC)CN(CCNc1cc(-n3nc(C)c4c3CC(C)(C)CC4=O)ccc1C(N)=O)CC2`, the Ki is above 1 µM in test [1] and 0.82 µM in test [2].

What is called Ki is a measure of affinity in units of concentration, obtained from inhibition or displacement.
